Reference: US20120034193A1, “TREATMENT OF NEUROTROPHIC FACTOR MEDIATED DISORDERS” (priority 2009, published 2012)

Experiments:
Assay in all cases: Binding assay
Settings in all cases: smilagenin 1 μM
[1] = target: 5-Hydroxytryptamine, 5-HT2B (Homo sapiens, UniProt P41595)
Protocol: (§1) The receptor binding was investigated using the following method: Sarsasapogenin was incubated with tissue or cell homogenate that expressed the receptor of interest and a known concentration a radiolabelled compound with affinity for the receptor of interest. After the incubation period the non-bound radiolabelled compound was removed and the amount of specific binding was quantified. The amount of specific binding in the presence and absence of sarsasapogenin were compared and the percent inhibition of the binding of the radiolabelled compound by sarsasapogenin was calculated. The source of the receptor, the incubation conditions, the radiolabelled compound used varied depending on each specific assay.
(§2) Using the same methods as described above, the binding of smilagenin (1 μM) to the receptors listed in Table 2 below, and the effect of smilagenin on the activity of the enzymes listed in Table 2 below, were investigated.

[2] = target: 5-Hydroxytryptamine, 5-HT5A (Homo sapiens, UniProt P47898)
5-Hydroxytryptamine, 5-HT5A, sequence (P47898 whole entry): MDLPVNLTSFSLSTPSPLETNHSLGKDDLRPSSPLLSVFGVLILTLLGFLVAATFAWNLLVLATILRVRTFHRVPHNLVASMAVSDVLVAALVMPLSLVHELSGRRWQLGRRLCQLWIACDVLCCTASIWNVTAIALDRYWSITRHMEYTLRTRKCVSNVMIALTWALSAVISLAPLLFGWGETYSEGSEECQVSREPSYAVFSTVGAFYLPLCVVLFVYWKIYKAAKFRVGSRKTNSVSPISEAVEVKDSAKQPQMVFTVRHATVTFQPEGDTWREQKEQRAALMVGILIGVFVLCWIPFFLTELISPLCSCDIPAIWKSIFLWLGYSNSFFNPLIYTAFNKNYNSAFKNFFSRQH
Protocol: as §1, §2

[3] = target: 5-Hydroxytryptamine, 5-HT6 (Homo sapiens, UniProt P50406)
5-Hydroxytryptamine, 5-HT6, sequence (P50406 whole entry): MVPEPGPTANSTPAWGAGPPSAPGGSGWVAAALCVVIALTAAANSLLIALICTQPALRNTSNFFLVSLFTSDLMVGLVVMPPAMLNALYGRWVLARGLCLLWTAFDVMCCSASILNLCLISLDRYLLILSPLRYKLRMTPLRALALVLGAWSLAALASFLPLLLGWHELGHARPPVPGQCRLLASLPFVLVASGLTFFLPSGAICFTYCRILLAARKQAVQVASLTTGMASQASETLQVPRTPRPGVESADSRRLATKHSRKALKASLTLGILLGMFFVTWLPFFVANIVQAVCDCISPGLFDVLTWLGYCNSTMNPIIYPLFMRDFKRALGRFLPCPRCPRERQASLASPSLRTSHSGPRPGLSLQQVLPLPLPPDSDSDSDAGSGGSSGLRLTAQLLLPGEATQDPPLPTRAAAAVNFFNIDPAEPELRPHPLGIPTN
Protocol: as §1, §2

APJ = APJ (Homo sapiens, UniProt P35414)
Protocol: as §1, §2

Adensonine A1 = Adensonine A1 (Homo sapiens, UniProt P30542)
Protocol: as §1, §2

Adensonine A2A = Adensonine A2A (Homo sapiens, UniProt P29274)
Protocol: as §1, §2

Adrenomedullin AM2 = Adrenomedullin AM2 (Homo sapiens, UniProt O60896+Q16602)
Protocol: as §1, §2

Anaphylatoxin C5a = Anaphylatoxin C5a (Homo sapiens, UniProt P21730)
Anaphylatoxin C5a, sequence (P21730 whole entry): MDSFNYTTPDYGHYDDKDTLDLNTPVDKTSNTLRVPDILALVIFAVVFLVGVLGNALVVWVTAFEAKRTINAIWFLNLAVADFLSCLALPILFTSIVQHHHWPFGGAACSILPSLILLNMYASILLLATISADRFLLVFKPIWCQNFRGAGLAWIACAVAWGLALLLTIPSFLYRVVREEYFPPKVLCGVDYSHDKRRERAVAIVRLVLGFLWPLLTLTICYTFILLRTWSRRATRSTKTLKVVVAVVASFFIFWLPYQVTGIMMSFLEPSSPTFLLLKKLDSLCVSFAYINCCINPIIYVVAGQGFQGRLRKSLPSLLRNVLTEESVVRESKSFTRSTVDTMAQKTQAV
Protocol: as §1, §2

Bombesin BB2 = Bombesin BB2 (Homo sapiens, UniProt P30550)
Protocol: as §1, §2

Bombesin BB3 = Bombesin BB3 (Homo sapiens, UniProt P32247)
Protocol: as §1, §2

Bradykinin B2 = Bradykinin B2 (Homo sapiens, UniProt P30411)
Bradykinin B2, sequence (P30411 whole entry): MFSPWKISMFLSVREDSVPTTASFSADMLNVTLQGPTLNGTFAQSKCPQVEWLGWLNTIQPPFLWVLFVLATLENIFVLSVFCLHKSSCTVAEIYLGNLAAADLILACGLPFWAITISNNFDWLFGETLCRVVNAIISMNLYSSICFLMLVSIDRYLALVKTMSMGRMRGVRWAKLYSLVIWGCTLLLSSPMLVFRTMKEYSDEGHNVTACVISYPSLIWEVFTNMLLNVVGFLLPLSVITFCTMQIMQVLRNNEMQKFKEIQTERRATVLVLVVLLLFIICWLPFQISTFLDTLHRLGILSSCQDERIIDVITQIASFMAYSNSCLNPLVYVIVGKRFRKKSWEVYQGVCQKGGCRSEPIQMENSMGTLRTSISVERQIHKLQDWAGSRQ
Protocol: as §1, §2

Calcitonin = Calcitonin (Homo sapiens, UniProt P30988)
Calcitonin, sequence (P30988 25-474): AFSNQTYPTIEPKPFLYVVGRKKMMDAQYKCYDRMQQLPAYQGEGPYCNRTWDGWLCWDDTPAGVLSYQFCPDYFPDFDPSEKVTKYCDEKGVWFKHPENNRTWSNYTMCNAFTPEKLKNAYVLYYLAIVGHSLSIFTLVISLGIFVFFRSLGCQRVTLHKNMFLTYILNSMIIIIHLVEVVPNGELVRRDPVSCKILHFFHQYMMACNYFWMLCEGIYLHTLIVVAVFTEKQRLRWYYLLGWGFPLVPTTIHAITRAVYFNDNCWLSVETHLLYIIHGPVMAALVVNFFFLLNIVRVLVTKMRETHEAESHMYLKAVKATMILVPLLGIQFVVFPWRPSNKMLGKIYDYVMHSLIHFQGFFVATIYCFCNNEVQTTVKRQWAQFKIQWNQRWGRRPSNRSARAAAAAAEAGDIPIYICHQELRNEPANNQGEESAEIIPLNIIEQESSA
Protocol: as §1, §2

Cannabinoid CB1 = Cannabinoid CB1 (Homo sapiens, UniProt P21554)
Protocol: as §1, §2

Chemokine CCR4 = Chemokine CCR4 (Homo sapiens, UniProt P51679)
Protocol: as §1, §2

Dopamine D2S = Dopamine D2S (Homo sapiens, UniProt P14416)
Protocol: as §1, §2

Erythropoietin EPOR = target: T1, Erythropoietin EPOR (Homo sapiens, UniProt P19235)
T1 construct: host or cells: tissue or cell homogenate (not specified)
Protocol: as §1, §2

GABAB1B = target: T2, GABAB1B (Homo sapiens, UniProt Q9UBS5)
T2 construct: host or cells: tissue or cell homogenate (not specified)
Protocol: as §1, §2

Galanin GAL1 = target: T3, Galanin GAL1 (Homo sapiens, UniProt P47211)
T3 construct: host or cells: tissue or cell homogenate (not specified)
Protocol: as §1, §2

Galanin GAL2 = target: T4, Galanin GAL2 (Homo sapiens, UniProt O43603)
T4 construct: host or cells: tissue or cell homogenate (not specified)
Protocol: as §1, §2

Histamine H3 = target: T5, Histamine H3 (Homo sapiens, UniProt Q9Y5N1)
T5 construct: host or cells: tissue or cell homogenate (not specified)
Protocol: as §1, §2

Insulin = Insulin (Rattus norvegicus, UniProt P15127)
Protocol: as §1, §2

Melanocortin MC4 = Melanocortin MC4 (Homo sapiens, UniProt P32245)
Melanocortin MC4, sequence (P32245 whole entry): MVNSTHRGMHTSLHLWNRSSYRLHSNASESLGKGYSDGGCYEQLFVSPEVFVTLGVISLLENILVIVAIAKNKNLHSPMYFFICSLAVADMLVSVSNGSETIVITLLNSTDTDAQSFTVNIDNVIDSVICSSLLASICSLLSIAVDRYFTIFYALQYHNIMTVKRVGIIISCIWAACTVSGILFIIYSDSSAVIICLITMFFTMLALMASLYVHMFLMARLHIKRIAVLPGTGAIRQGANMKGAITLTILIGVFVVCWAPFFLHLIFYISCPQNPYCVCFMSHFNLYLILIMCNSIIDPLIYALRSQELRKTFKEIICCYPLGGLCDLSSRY
Protocol: as §1, §2

Melanocortin MC5 = Melanocortin MC5 (Homo sapiens, UniProt P33032)
Melanocortin MC5, sequence (P33032 whole entry): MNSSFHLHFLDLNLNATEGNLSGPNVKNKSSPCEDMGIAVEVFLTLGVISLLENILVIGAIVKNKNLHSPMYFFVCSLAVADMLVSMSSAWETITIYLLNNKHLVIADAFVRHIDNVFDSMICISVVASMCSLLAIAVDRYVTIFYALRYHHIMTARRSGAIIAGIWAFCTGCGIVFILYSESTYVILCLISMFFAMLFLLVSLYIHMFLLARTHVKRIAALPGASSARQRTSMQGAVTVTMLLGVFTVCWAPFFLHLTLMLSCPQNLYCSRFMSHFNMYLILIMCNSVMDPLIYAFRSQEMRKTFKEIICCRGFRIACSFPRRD
Protocol: as §1, §2

Melatonin MT1 = Melatonin MT1 (Homo sapiens, UniProt P48039)
Protocol: as §1, §2

Muscarinic M3 = target: T6, Muscarinic M3 (Homo sapiens, UniProt P20309)
T6 construct: host or cells: tissue or cell homogenate, not specified
T6 sequence (P20309 whole entry): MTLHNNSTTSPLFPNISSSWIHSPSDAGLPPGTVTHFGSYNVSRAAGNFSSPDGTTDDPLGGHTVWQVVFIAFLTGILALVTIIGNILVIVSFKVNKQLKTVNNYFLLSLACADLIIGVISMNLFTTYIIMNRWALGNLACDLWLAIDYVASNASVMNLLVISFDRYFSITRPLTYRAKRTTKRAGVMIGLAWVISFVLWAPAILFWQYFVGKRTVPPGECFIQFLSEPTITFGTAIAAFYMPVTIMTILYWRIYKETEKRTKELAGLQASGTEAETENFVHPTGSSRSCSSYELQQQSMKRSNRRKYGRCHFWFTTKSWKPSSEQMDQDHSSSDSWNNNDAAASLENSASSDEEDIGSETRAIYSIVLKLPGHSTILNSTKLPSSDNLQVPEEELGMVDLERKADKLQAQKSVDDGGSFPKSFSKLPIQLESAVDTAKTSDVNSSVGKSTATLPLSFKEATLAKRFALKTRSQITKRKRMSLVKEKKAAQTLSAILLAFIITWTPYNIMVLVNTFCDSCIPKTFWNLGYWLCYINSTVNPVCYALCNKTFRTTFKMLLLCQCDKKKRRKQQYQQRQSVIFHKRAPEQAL
Protocol: as §1, §2

Neurotensin NT1 = Neurotensin NT1 (Homo sapiens, UniProt P30989)
Protocol: as §1, §2

Oestrogen (ERα) = target: T7, Oestrogen (ERα) (Homo sapiens, UniProt P03372)
T7 construct: host or cells: tissue or cell homogenate (not specified)
T7 sequence (P03372 whole entry): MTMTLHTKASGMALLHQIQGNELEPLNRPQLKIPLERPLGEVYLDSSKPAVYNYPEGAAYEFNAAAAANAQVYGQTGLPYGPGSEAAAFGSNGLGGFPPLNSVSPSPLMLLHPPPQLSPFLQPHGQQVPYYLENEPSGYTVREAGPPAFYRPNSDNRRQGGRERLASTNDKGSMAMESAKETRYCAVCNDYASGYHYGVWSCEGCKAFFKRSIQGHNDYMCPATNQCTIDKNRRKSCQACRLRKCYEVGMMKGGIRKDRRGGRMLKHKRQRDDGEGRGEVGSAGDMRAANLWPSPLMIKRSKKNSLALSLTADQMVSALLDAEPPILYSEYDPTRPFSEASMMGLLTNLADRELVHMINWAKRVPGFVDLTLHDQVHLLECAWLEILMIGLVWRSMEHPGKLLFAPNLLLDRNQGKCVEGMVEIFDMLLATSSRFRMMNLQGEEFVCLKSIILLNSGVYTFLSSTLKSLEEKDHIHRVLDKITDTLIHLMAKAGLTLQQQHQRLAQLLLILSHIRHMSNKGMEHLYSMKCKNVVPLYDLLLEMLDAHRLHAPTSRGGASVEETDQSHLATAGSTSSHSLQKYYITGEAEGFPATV
Protocol: as §1, §2

Prostanoid EP2 = Prostanoid EP2 (Homo sapiens, UniProt P43116)
Protocol: as §1, §2

Prostanoid EP4 = Prostanoid EP4 (Homo sapiens, UniProt P35408)
Protocol: as §1, §2

Purinergic P2X = test system: Purinergic P2X
Protocol: as §1, §2

Somatostatin sst3 = Somatostatin sst3 (Homo sapiens, UniProt P32745)
Protocol: as §1, §2

Tachykinin NK1 = Tachykinin NK1 (Homo sapiens, UniProt P25103)
Tachykinin NK1, sequence (P25103 whole entry): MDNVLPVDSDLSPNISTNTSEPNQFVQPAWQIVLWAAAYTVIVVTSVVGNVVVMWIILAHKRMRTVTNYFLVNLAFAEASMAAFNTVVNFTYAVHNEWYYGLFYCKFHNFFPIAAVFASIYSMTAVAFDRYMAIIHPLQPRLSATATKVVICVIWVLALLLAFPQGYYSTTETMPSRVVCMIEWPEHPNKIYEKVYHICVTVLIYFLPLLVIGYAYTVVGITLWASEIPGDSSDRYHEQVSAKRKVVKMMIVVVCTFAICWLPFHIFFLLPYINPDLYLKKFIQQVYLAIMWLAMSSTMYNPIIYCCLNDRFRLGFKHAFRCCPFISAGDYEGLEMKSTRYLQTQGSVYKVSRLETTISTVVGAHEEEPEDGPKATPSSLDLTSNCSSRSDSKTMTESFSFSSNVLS
Protocol: as §1, §2

[4] = target: T8, Transporter, 5-hydroxytryptamine (SERT) (Homo sapiens, UniProt P31645)
T8 construct: host or cells: tissue or cell homogenate, not specified
Protocol: as §1, §2

[5] = target: T9, Transporter, Norepinephrine (NET) (Homo sapiens, UniProt P23975)
T9 construct: host or cells: tissue or cell homogenate, not specified
Protocol: as §1, §2

Vanilloid = target: T10, Vanilloid (Rattus norvegicus, UniProt O35433)
T10 construct: host or cells: tissue or cell homogenate, not specified
Protocol: as §1, §2

Vasopressin V1A = target: T11, Vasopressin V1A (Homo sapiens, UniProt P37288)
T11 construct: host or cells: tissue or cell homogenate, not specified
Protocol: as §1, §2

Vitamin D3 = target: T12, Vitamin D3 (Homo sapiens, UniProt P11473)
T12 construct: host or cells: tissue or cell homogenate, not specified
Protocol: as §1, §2

5-Hydroxytryptamine, 5-HT2B, sequence (P41595 whole entry): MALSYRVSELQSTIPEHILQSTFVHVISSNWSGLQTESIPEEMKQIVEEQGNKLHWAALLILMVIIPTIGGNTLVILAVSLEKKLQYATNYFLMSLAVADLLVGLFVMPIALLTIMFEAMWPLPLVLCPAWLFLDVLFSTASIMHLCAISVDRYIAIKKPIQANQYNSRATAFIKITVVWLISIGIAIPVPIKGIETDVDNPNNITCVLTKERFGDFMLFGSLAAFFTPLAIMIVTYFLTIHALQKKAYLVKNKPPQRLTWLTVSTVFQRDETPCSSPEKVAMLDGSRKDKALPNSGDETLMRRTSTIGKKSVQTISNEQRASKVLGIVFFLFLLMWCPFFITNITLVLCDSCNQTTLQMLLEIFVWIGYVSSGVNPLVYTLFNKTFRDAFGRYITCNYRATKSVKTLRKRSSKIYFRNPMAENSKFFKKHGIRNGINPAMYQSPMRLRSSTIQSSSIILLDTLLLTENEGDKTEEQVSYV

With `C[C@@H]1CC[C@@]2(OC1)O[C@H]1C[C@H]3[C@@H]4CC[C@@H]5C[C@@H](O)CC[C@]5(C)[C@H]4CC[C@]3(C)[C@H]1[C@@H]2C` [Smilagenin, smilagenin] the “Effect (%)” value [1] was “NS (NS = No significant response. Significance was taken as ≧30% stimulation or inhibition)”, the “Effect (%)” value [2] was “NS (NS = No significant response. Significance was taken as ≧30% stimulation or inhibition)” and the “Effect (%)” value [3] was “NS (NS = No significant response. Significance was taken as ≧30% stimulation or inhibition)”. For the same compound, the “Effect (%)” value (APJ) was “NS (NS = No significant response. Significance was taken as ≧30% stimulation or inhibition)”, the “Effect (%)” value (Adensonine A1) was “NS (NS = No significant response. Significance was taken as ≧30% stimulation or inhibition)” and the “Effect (%)” value (Adensonine A2A) was “NS (NS = No significant response. Significance was taken as ≧30% stimulation or inhibition)”. The “Effect (%)” value (Adrenomedullin AM2) was “NS (NS = No significant response. Significance was taken as ≧30% stimulation or inhibition)”, the “Effect (%)” value (Anaphylatoxin C5a) was “NS (NS = No significant response. Significance was taken as ≧30% stimulation or inhibition)” and the “Effect (%)” value (Bombesin BB2) was “NS (NS = No significant response. Significance was taken as ≧30% stimulation or inhibition)”. The “Effect (%)” value (Bombesin BB3) was “NS (NS = No significant response. Significance was taken as ≧30% stimulation or inhibition)”, the “Effect (%)” value (Bradykinin B2) was “NS (NS = No significant response. Significance was taken as ≧30% stimulation or inhibition)” and the “Effect (%)” value (Calcitonin) was “NS (NS = No significant response. Significance was taken as ≧30% stimulation or inhibition)”. For the same compound, the “Effect (%)” value (Cannabinoid CB1) was “NS (NS = No significant response. Significance was taken as ≧30% stimulation or inhibition)”, the “Effect (%)” value (Chemokine CCR4) was “NS (NS = No significant response. Significance was taken as ≧30% stimulation or inhibition)” and the “Effect (%)” value (Dopamine D2S) was “NS (NS = No significant response. Significance was taken as ≧30% stimulation or inhibition)”. The “Effect (%)” value (Erythropoietin EPOR) was “NS (NS = No significant response. Significance was taken as ≧30% stimulation or inhibition)”, the “Effect (%)” value (GABAB1B) was “NS (NS = No significant response. Significance was taken as ≧30% stimulation or inhibition)” and the “Effect (%)” value (Galanin GAL1) was “NS (NS = No significant response. Significance was taken as ≧30% stimulation or inhibition)”. For the same compound, the “Effect (%)” value (Galanin GAL2) was “NS (NS = No significant response. Significance was taken as ≧30% stimulation or inhibition)”, the “Effect (%)” value (Histamine H3) was “NS (NS = No significant response. Significance was taken as ≧30% stimulation or inhibition)” and the “Effect (%)” value (Insulin) was “NS (NS = No significant response. Significance was taken as ≧30% stimulation or inhibition)”. The “Effect (%)” value (Melanocortin MC4) was “NS (NS = No significant response. Significance was taken as ≧30% stimulation or inhibition)”, the “Effect (%)” value (Melanocortin MC5) was “NS (NS = No significant response. Significance was taken as ≧30% stimulation or inhibition)” and the “Effect (%)” value (Melatonin MT1) was “NS (NS = No significant response. Significance was taken as ≧30% stimulation or inhibition)”. For the same compound, the “Effect (%)” value (Muscarinic M3) was “NS (NS = No significant response. Significance was taken as ≧30% stimulation or inhibition)”, the “Effect (%)” value (Neurotensin NT1) was “NS (NS = No significant response. Significance was taken as ≧30% stimulation or inhibition)” and the “Effect (%)” value (Oestrogen (ERα)) was “NS (NS = No significant response. Significance was taken as ≧30% stimulation or inhibition)”. The “Effect (%)” value (Prostanoid EP2) was “NS (NS = No significant response. Significance was taken as ≧30% stimulation or inhibition)”, the “Effect (%)” value (Prostanoid EP4) was “NS (NS = No significant response. Significance was taken as ≧30% stimulation or inhibition)” and the “Effect (%)” value (Purinergic P2X) was “NS (NS = No significant response. Significance was taken as ≧30% stimulation or inhibition)”. For the same compound, the “Effect (%)” value (Somatostatin sst3) was “NS (NS = No significant response. Significance was taken as ≧30% stimulation or inhibition)”, the “Effect (%)” value (Tachykinin NK1) was “NS (NS = No significant response. Significance was taken as ≧30% stimulation or inhibition)” and the “Effect (%)” value [4] was “NS (NS = No significant response. Significance was taken as ≧30% stimulation or inhibition)”. The “Effect (%)” value [5] was “NS (NS = No significant response. Significance was taken as ≧30% stimulation or inhibition)”, the “Effect (%)” value (Vanilloid) was “NS (NS = No significant response. Significance was taken as ≧30% stimulation or inhibition)” and the “Effect (%)” value (Vasopressin V1A) was “NS (NS = No significant response. Significance was taken as ≧30% stimulation or inhibition)”. The “Effect (%)” value (Vitamin D3) was “NS (NS = No significant response. Significance was taken as ≧30% stimulation or inhibition)”.
